The numbers were not newly measured in patent US20070059354A1 (priority 2005, published 2007), which cites them from elsewhere.

In the case of `NC(=O)N1c2ccccc2CC(=O)c2ccccc21` [Oxcarbazepine], the solubility in water entry is recorded as “practically insoluble in water”.
